{
  "source": "patent US9566290B2",
  "about": "“Boron-containing small molecules” (Anacor Pharmaceuticals, Inc., priority 2005, dated 2017)",
  "key": {"[1]": {"test_system": "T. rubrum", "test": "MIC in the presence of 5% keratin powder", "format": "cell-based, Trichophyton rubrum", "method": "Many antifungal agents strongly bind to keratin which not only reduces their antifungal potency but also may restrict their penetration into the nail. The affinities of the compounds for keratin powder was determined by a method described in Tatsumi, Antimicrobial Agents and Chemotherapy, 46(12):3797-3801 (2002).\n(C10) is a novel compound in development for use as a topical antifungal treatment. The purpose of this study was to determine the minimum inhibitory concentration (MIC) for (C10) against 19 test strains of fungi including: Aspergillus fumigatus (A. fumigatus), Candida Albicans (C. albicans, both fluconazole sensitive and resistant strains), Candida glabrata (C. glabrata), Candida krusei (C. krusei), Cryptococcus neoformans (C. neoformans), Candida parapsilosis (C. parapsilosis), Candida tropicalis (C. tropicalis), Epidermophyton floccosum (E. floccosum), Fusarium solani (F. solani), Malassezia furfur (M. furfur), Malassezia pachydermatis (M. pachydermatis), Malassezia sympodialis (M. sympodialis), Microsporum audouinii (M. audouinii), Microsporum canis (M. canis), Microsporum gypseum (M. gypseum), Trichophyton mentagrophytes (T. mentagrophytes), Trichophyton rubrum (T. rubrum), Trichophyton tonsurans (T. tonsurans). Fungal growth was evaluated after exposure to different concentrations of (C10). […]"}, "[2]": {"test": "Log P determination (octanol/water) by LC/MS/MS", "format": "physicochemical", "conditions": "for Conc. in Octanol / Conc. in Water: partition", "method": "C10 (10 μL of […]) at 2× the final concentration was added to 0.5 mL pre-saturated n-octanol and mixed. An equal volume (0.5 mL) of pre-saturated water was added, vortex mixed and then mixed on a rotating shaker for one hour and 24 h in triplicate at ca. 25° C. The organic and aqueous layers were separated by centrifugation for 5 min at ca. 2000 rpm. Twenty five […] of the octanol (top) layer were removed and placed in a pre-labeled tube. Twenty five L of the aqueous layer (bottom) were removed, taking care to avoid octanol contamination, and placed in a pro-labeled tube.\nFor the octanol sample, 25 μL of ethanol, 25 μL of water and 300 μL of acetonitrile containing the internal standard was added. For the water sample, 25 μL of ethanol, 25 μL of octanol and 300 μL of acetonitrile containing the internal standard [60 mL of acetonitrile add 6 μL of PNP (1000 μg/mL)] was added. For the calibrators 25 μL of octanol, 25 μL of water and 300 μL of acetonitrile containing the internal standard was added. The sample was vortexed for 10 seconds. Two hundred μL of the organic layer were transferred into a clean deactivated autosampler vial.\nA 1/concentration weighted linear regression was used for the quantitation of C10. All integration were performed with peak areas using Analyst version 1.3, Applied Biosystems. For C10, peak area ratios analyte to internal standard PNP were used for all quantitation.\nThe partition coefficient (P) was calculated according to the equation detailed below: P=[Sample concentration]octanol/[Sample concentration]water Log P=log10(partition coefficient) Results: […]"}, "[3]": {"test_system": "S. cerevisiae C10 resistant mutants (CDC60 editing domain mutations)", "test": "MIC (NCCLS M27), spontaneous and EMS induced C10 resistant mutants", "format": "cell-based, Saccharomyces cerevisiae", "conditions": "for MIC: Saccharomyces cerevisiae", "method": "The haploid Saccharomyces cerevisiae strain ATCC 201388 was used in the selection of C10 resistant mutants. Spontaneous and EMS-induced resistant mutants were isolated from YPD agar plates containing 4×, 8×, 16×MIC of C10. All minimal inhibitory concentrations (MIC) were determined using NCCLS protocol M27 with the exception of using YPD or synthetic defined media. All yeast and molecular genetic manipulations were essentially performed as described by Guthrie C., et al., Methods in Enzymology, 350: Part B, (2002).\n(§1) Resistant mutants appeared after 2 d incubation at 30° C. Frequency of resistance was determined by dividing the number of resistant mutants by the total number of cells plated as determined by plating dilutions of the overnight culture on YPD plates.\nA 2.5 mL of the overnight culture, which was grown in YPD media, was centrifuged at 700×g for 5 minutes. The cell pellet was resuspended in 10 mL 50 mM potassium phosphate buffer, pH 7.0. The cell suspension was centrifuged again and the cell pellet was resuspended in phosphate buffer to obtain a cell density of 5×10^7 cells/mL as determined by counting the cells using a Petroff Hausser Counting Chamber (Horsham, Pa. USA). The cell suspension was shaken with 300 μL of EMS (Alfa Aesar, Ward Hill, Mass., USA) for 30 min. at 30° C. The mutagenesis was stopped by adding 10% (w/v) sodium thiosulfate (Sigma-Aldrich, St. Louis, Mo., USA), and the cells were pelleted by centrifugation at 700×g for 5 min. and resuspended in 1 mL sterile H2O. This was repeated once more before the cells were plated on YPD agar plates containing 1.6 μg/mL of C10.\nThe minimal inhibitory concentration (MIC) was essentially performed following the NCCLS guidelines outlined in the M27 protocol with the exception of using YPD or synthetic defined media (SDM)."}, "[4]": {"test_system": "S. cerevisiae strain ATCC201388", "test": "Frequency of spontaneous resistance", "format": "cell-based, Saccharomyces cerevisiae", "conditions": "spontaneous mutants, at 4×MIC", "method": "as §1"}},
  "note": "Several values for one entry are separate records, joined by “and”; a condition that tells them apart may be missing. Equal entries are not always repeated. Where two headings read alike, the source gives them in different places.",
  "data": [
    {"smiles": "OB1OCc2cc(F)ccc21", "note": "[C10, 5-fluorobenzo[c][1,2]oxaborol-1(3H)-ol]", "values": [
      {"measurement": "effect of addition of 5% keratin powder to the media on MIC", "setting": "[1]", "result": "did not effect the MIC"},
      {"measurement": "Log P", "setting": "[2]; 1 h, replicates", "result": 1.93},
      {"measurement": "Log P", "setting": "[2]; 24 h, replicates", "result": "1.89 and 1.91"},
      {"measurement": "mean log P", "setting": "[2]; after 24 h (n=3)", "result": 1.93},
      {"measurement": "logP at 1 h", "setting": "[2]; n-octanol/water, 1 h, replicates, read-out: Log P", "result": 2.04},
      {"measurement": "logP at 24 h", "setting": "[2]; n-octanol/water, 24 h, replicates", "result": 1.97},
      {"measurement": "logP at 1 h", "setting": "[2]; n-octanol/water, after 1 h (n=3), read-out: mean log P", "result": 1.97},
      {"measurement": "Conc. in Octanol", "setting": "[2]; 1 h, replicates", "result": "108 µg/mL and 103 µg/mL and 115 µg/mL"},
      {"measurement": "Conc. in Water", "setting": "[2]; 1 h, replicates", "result": "1.26 µg/mL and 1.21 µg/mL and 1.05 µg/mL"},
      {"measurement": "Conc. in Octanol", "setting": "[2]; 24 h, replicates", "result": "109 µg/mL and 99.0 µg/mL and 104 µg/mL"},
      {"measurement": "Conc. in Water", "setting": "[2]; 24 h, replicates", "result": "1.17 µg/mL and 1.28 µg/mL and 1.27 µg/mL"},
      {"measurement": "increase in resistance (MIC) of resistant mutants over wildtype", "setting": "[3]; 11 C10 resistant mutants", "result": "8-64 fold"},
      {"measurement": "increased resistance over wildtype in the minimal inhibitory concentration test", "setting": "[3]; 23 C10 resistant mutants (Example 41)", "result": "8-64 fold"},
      {"measurement": "MIC", "setting": "[3]; Table 1, mutant (A), CDC60 N415D", "result": 4, "unit": "µg/mL"},
      {"measurement": "MIC", "setting": "[3]; Table 1, mutant (B), CDC60 R316I", "result": 16, "unit": "µg/mL"},
      {"measurement": "MIC", "setting": "[3]; Table 1, mutant (C), CDC60 C326F", "result": 16, "unit": "µg/mL"},
      {"measurement": "MIC", "setting": "[3]; Table 1, mutant (D), CDC60 G405V", "result": 32, "unit": "µg/mL"},
      {"measurement": "MIC", "setting": "[3]; Table 1, mutant (E), CDC60 C326R", "result": 16, "unit": "µg/mL"},
      {"measurement": "MIC", "setting": "[3]; Table 1, mutant (F), CDC60 D487G", "result": 32, "unit": "µg/mL"},
      {"measurement": "MIC", "setting": "[3]; Table 1, mutant (G), CDC60 L315V", "result": 32, "unit": "µg/mL"},
      {"measurement": "MIC", "setting": "[3]; Table 1, mutant (H), CDC60 T314M", "result": 32, "unit": "µg/mL"},
      {"measurement": "MIC", "setting": "[3]; Table 1, mutant (I), CDC60 S416L", "result": 32, "unit": "µg/mL"},
      {"measurement": "MIC", "setting": "[3]; Table 1, mutant (J), CDC60 D487N", "result": 32, "unit": "µg/mL"},
      {"measurement": "MIC", "setting": "[3]; Table 1, mutant (K), CDC60 T319I", "result": 32, "unit": "µg/mL"},
      {"measurement": "MIC", "setting": "[3]; Table 2, C10 resistant mutant (C)", "result": 16, "unit": "µg/mL"},
      {"measurement": "MIC", "setting": "[3]; Table 2, C10 resistant mutant (G)", "result": 16, "unit": "µg/mL"},
      {"measurement": "MIC", "setting": "[3]; Table 2, C10 resistant mutant (H)", "result": 16, "unit": "µg/mL"},
      {"measurement": "frequency of resistance", "setting": "[4]", "result": "1.2×10^−7"}
    ]}
  ]
}
